Assay results published in patent publication US6548241B1, “Storage solution containing photosensitizer for inactivation of biological contaminants” (Gambro, Inc., priority 2000, dated 2003).
In brackets after ≈: the same amount, converted by molar mass. Read-outs that look alike come from different tables or passages of the source.

Key:
[1] = format: physicochemical; details: for solubility thermodynamic at 1 h: thermodynamic from solid
Experimental: The mixture was agitated at room temperature for one hour and vortex mixed to ensure complete dissolution of the suspended material. […] This suspension was then centrifuged to remove undissolved material. The supernatant from this preparation was removed and analyzed using a spectrophotometer. The absorbance values of the solution were determined at 447 nm and 373 nm. From the extinction coefficients that were determined previously, it was possible to estimate the concentration of the saturated solution Solubility in ACD-A Anticoagulant The same procedure described above was repeated using ACD-A Anticoagulant.

[2] = test system: HSV-II; test: Inactivation of HSV-II in platelet concentrate and PC:media with ascorbate (log virus titre); details: 14 μM + 6 mM ascorbate
[3] = test system: Staphylococcus aureus; test: Log inactivation of S. aureus in platelet concentrate, irradiation at 80 J/cm^2
[4] = Photodecomposition in ACD-A upon exposure to UV light (365 nm); details: for % of Initial, 373 nm / % of Initial, 447 nm: 63 μg/mL in ACD-A, UV 365 nm
[5] = test system: Staphylococcus epidermidis; test: Log inactivation of S. epidermidis in platelet concentrate, irradiation at 80 J/cm^2
[6] = test system: herpes simplex virus type II (HSV-II); test: Inactivation of HSV-II in platelet concentrates at varying photosensitizer concentrations; details: platelet concentrate, 80 J/cm^2, all three trials
[7] = test system: Listeria monocytogenes; test: Log inactivation of Listeria monocytogenes in platelet concentrate, cuvette apparatus; format: cell-based
Experimental: Mixtures of platelet concentrates and platelet additive solutions are referred to herein as in “media.” Platelet concentrate without additive solution is referred to herein as in “plasma.” Both were spiked with Listeria monocytogenes. Vitamin K5 was then added to each in the amount of 300 μg/mL […]. Each was then exposed to UV, visible or room light in the cuvette apparatus of FIG. 5 with the results shown in Table 3.

SMILES: Cc1cc2nc3c(=O)[nH]c(=O)nc-3n(C[C@H](O)[C@H](O)[C@H](O)CO)c2cc1C [7,8-dimethyl-10-ribityl isoalloxazine]
- solubility thermodynamic at 1 h ([1]; ACD-A Anticoagulant, aqueous buffer, ACD-A Anticoagulant, absorbance at 373 nm, read-out: Concentration (373) of saturated solution): 63 µg/mL (≈ 167 µM)
- solubility thermodynamic at 1 h ([1]; ACD-A Anticoagulant, aqueous buffer, ACD-A Anticoagulant, absorbance at 447 nm, read-out: Concentration (447) of saturated solution): 60.3 µg/mL (≈ 160 µM)
- Concentration (373) of saturated solution ([1]; ACD-A Anticoagulant, absorbance at 373 nm): 166 µM
- Concentration (447) of saturated solution ([1]; ACD-A Anticoagulant, absorbance at 447 nm): 160 µM
- solubility thermodynamic at 1 h ([1]; Isolyte S media, pH 7.4, saline or isotonic, Isolyte S, pH 7.4 media, room temperature, absorbance at 373 nm, read-out: Concentration (373) of saturated solution): 42 µg/mL (≈ 112 µM)
- solubility thermodynamic at 1 h ([1]; Isolyte S media, pH 7.4, saline or isotonic, Isolyte S, pH 7.4 media, room temperature, absorbance at 447 nm, read-out: Concentration (447) of saturated solution): 40.9 µg/mL (≈ 109 µM)
- Concentration (373) of saturated solution ([1]; Isolyte S, pH 7.4 media, room temperature, absorbance at 373 nm): 110 µM
- Concentration (447) of saturated solution ([1]; Isolyte S, pH 7.4 media, room temperature, absorbance at 447 nm): 109 µM
- log virus titre ([2]; 30:70 PC:Media (PASIII), UV+VIS 0 J/cm^2, 0.0 Minutes): 5.6
- log virus titre ([2]; 30:70 PC:Media, UV+VIS 5 J/cm^2, 1.5 Minutes): 2.5
- log virus titre ([2]; 30:70 PC:Media, UV+VIS 10 J/cm^2, 3.0 Minutes): 2.5
- log virus titre ([2]; 30:70 PC:Media, UV+VIS 15 J/cm^2, 4.5 Minutes): 2.3
- log virus titre ([2]; 30:70 PC:Media, UV+VIS 20 J/cm^2, 6.0 Minutes): 1.8
- log virus titre ([2]; 30:70 PC:Media, UV+VIS 30 J/cm^2, 9.0 Minutes): 1.6
- log virus titre ([2]; 90:10 PC:Media, UV+VIS 0 J/cm^2): 5.6
- log virus titre ([2]; 90:10 PC:Media, UV+VIS 40 J/cm^2): 3.3
- Log Inactivation (cfu/mL) ([3]; 10 μM in platelet concentrate): 1.9 Logs
- % of Initial, 373 nm ([4]; Irradiation Time 0): 100%
- % of Initial, 447 nm ([4]; Irradiation Time 0): 100%
- % of Initial, 373 nm ([4]; Irradiation Time 5): 87.3%
- % of Initial, 447 nm ([4]; Irradiation Time 5): 61.6%
- % of Initial, 373 nm ([4]; Irradiation Time 10): 90.5%
- % of Initial, 447 nm ([4]; Irradiation Time 10): 76.6%
- % of Initial, 373 nm ([4]; Irradiation Time 15): 100%
- % of Initial, 447 nm ([4]; Irradiation Time 15): 70%
- decomposition of the reagent (absorption profile at 373 nm) ([4]; over the entire irradiation period): no significant decomposition
- Log Inactivation (cfu/mL) ([5]; 10 μM in platelet concentrate): 4.1 Logs
- inactivation of HSV-II [6]: complete inactivation

SMILES: Cc1cc2nc3[nH]c(=O)[nH]c(=O)c3nc2cc1C [7-8-dimethyl alloxazine]
- Log Inactivation (cfu/mL) ([3]; 7 μM in platelet concentrate): 1.6 Logs
- Log Inactivation (cfu/mL) ([5]; 7 μM in platelet concentrate): 2.9 Logs

SMILES: Cc1cc(N)c2ccccc2c1O [K5, Vitamin K5]
- Log Inactivation (cfu/mL) ([7]; K5 300 μg/mL in Media (20:80 platelet concentrate:Isolyte S), UV 365 nm, 40 J/cm^2): 4.2 Logs
- Log Inactivation (cfu/mL) ([7]; K5 300 μg/mL in Media, Room Light): 0 Logs
- Log Inactivation (cfu/mL) ([7]; K5 300 μg/mL in Media, VIS 419 nm, 40 J/cm^2): 4.2 Logs
- Log Inactivation (cfu/mL) ([7]; K5 300 μg/mL in Plasma (platelet concentrate without additive solution), UV 365 nm, 40 J/cm^2): 0.1 Logs
- Log Inactivation (cfu/mL) ([7]; K5 300 μg/mL in Plasma, Room Light): 0 Logs
- Log Inactivation (cfu/mL) ([7]; K5 300 μg/mL in Plasma, VIS 419 nm, 40 J/cm^2): 0.1 Logs

SMILES: Cc1cc2nc3c(=O)[nH]c(=O)nc-3n(C[C@H](O)[C@H](O)[C@H](O)COP(=O)(O)O)c2cc1C [alloxazine mononucleotide]
- Log Inactivation (cfu/mL) ([3]; 10 μM in platelet concentrate): 1.6 Logs
- Log Inactivation (cfu/mL) ([5]; 10 μM in platelet concentrate): 5.6 Logs
